Structures can show the parent of a compound that is named as a salt.
Molecular target: T1, human FSH receptor (Homo sapiens, UniProt P23945)
T1 construct: host or cells: CHO-K1 (CHO FSH-R 6CRE-Luc, 1D7 cells)
T1 sequence (P23945 18-695): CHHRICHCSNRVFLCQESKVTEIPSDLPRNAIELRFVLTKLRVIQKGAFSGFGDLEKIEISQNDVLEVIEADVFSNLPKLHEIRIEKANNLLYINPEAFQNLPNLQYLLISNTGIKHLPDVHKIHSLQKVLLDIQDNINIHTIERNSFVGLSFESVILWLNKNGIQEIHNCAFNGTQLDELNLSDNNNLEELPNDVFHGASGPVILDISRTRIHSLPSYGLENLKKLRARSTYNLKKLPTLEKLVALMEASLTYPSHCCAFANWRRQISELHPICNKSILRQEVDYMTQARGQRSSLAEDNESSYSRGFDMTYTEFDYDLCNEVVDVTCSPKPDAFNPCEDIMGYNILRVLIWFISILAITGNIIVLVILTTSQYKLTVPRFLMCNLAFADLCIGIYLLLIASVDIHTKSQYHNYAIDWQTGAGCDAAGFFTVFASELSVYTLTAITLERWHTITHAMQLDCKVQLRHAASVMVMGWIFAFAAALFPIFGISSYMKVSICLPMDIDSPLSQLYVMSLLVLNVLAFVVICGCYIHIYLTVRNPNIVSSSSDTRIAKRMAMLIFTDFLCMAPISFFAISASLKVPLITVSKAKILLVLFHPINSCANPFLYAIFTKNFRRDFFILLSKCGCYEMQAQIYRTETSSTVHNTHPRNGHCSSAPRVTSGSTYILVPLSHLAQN
Experiment: FSH receptor-dependent CRE-luciferase reporter gene assay (CHO FSH-R 6CRE-Luc cells)
Type: cell-based
Settings: dose-response format in presence of EC50 of purified human FSH; * n=3, ** n=2 averages
Text: FOLLICLE-STIMULATING HORMONE RECEPTOR-DEPENDENT CRE-LUCIFERASE REPORTER GENE ASSAY FOR THE IDENTIFICATION OF FOLLICLE-STIMULATING HORMONE (FSH) ANTAGONISTS
A Chinese hamster ovarian cell line that stably produces the human FSH receptor and a luciferase reporter gene regulated by cAMP response elements was used to identify and determine the relative potencies of human FSH receptor antagonists. See for example, Kelton, C. A., et al. Mol. Cell. Endocrinol. 89:141-151 (1992), Tilly, J. L., et al. Endocrinology 131:799-806(1992), and George, S. E., et al. J. Biomol. Screening 2:235-240 (1997).
Compound Vehicle: Stock compounds were solubilized in an appropriate vehicle, e.g., phosphate buffered saline (PBS) or dimethyl sulfoxide (DMSO), at 30 mM. The compounds subsequently were diluted in DMSO to working dilutions of 1 and 20 or 30 mM for 2-dose testing format and 1 μM-10 mM for dose-response format. The DMSO dilutions were diluted 500-fold in sterile growth medium [D-MEM/F-12 (GIBCO/BRL; Grand Island, N.Y.) containing 15 mM HEPES, 2 mM l-glutamine, pyridoxine hydrochloride, phenol red and 5% FETALCLONE® II (HyClone Laboratories, Inc; Logan, Utah), 0.2% DMSO, 100 units penicillin G/ml, and 100 μg streptomycin sulfate/ml (GIBCO/BRL)]. The concentration of the vehicle in each of the compound dilutions was the same.
Positive Controls: Purified human FSH (>98%) was purchased from Cortex Biochem, Inc. (San Leandro, Calif.) and 3-[(2S*,5R*)-5-{[2-(1H-Indol-3-yl)-ethylcarbamoyl]-methyl}-4-oxo-2-(5-phenylethynyl-thiophen-2-yl)-thiazolidin-3-yl]-benzamide (an FSH-R thiazolidinone antagonist) was prepared by processes described by R. A. Scheuerman et al. in U.S. Pat. No. 6,426,357 (Affymax).
The CHO FSH-R 6CRE-Luc cells (1D7 cells) were obtained from Affymax (Palo Alto, Calif.). These Chinese hamster ovary cells (CHO-K1) were engineered genetically to stably express the recombinant human FSH receptor gene and a luciferase reporter gene under the regulation of 6 copies of a cAMP response element. The cells were plated one day prior to treatment into 96-well white opaque plates at a density of 50,000 cells/100 μl/well in growth medium. On the day of treatment, the growth medium was removed from the wells by aspiration and 50 μl of fresh growth medium was added to each well. The cells were incubated at 37° C. in a humidified incubator with 5% CO2/95% air.
The treated cells were incubated for 4 hours at 37° C. in a humidified incubator with 5% CO2/95% air. At the end of the incubation period, luciferase activity was measured by chemiluminescence using a commercially available kit (LucScreen, Tropix, Inc., Bedford, Mass.) according to the manufacturer's specifications, except that Buffer 1 and Buffer 2 were mixed together in equal proportion prior to the addition of 100 μl of the combined reagents to each well. Chemiluminescence was detected using a luminometer (EG & G Berthold Microlumat LB 96 P, Wallac, Gaithersburg, Md.) with chemiluminescence measured for 1 sec/well. Background luminescence was measured for each well prior to the addition of the LucScreen reagent.
In the 96-well 2-dose format, each compound was tested in duplicate at each dose. […] One plate was used to test a maximum of 22 compounds.
The EC50 of purified human FSH alone was tested in triplicate with each test compound. The doses chosen to test each compound were extrapolated from the initial 2-dose screening process. Along with the test compounds, purified human FSH also was tested in a dose response (0.03, 0.1, 0.3, 1, 3, 10, and 30 ng/ml) for a positive control and quality control. One plate was used for 3 test compounds and the FSH positive control.
Luciferase activity is expressed as relative light units/sec/well. Luciferase activity in antagonist was compared to the appropriate negative and positive controls. For 2-dose testing, results are reported as luciferase activity and are expressed as percent inhibition of the response obtained from the EC50 of FSH.

SMILES	IC50
O=C(O)c1ccccc1-c1ccc(C(=O)N2Cc3ccc(C(=O)NCc4cccnc4)n3Cc3ccccc32)cc1 [Example 65, 4′-{[3-{[(PYRIDIN-3-YLMETHYL)AMINO]CARBONYL}-5H-PYRROLO[2,1-C][1,4]BENZODIAZEPIN-10(11H)-YL]CARBONYL}-1,1′-BIPHENYL-2-CARBOXYLIC ACID]	> 30 µM
CC(C)(C)OC(=O)NCc1ccc(C(=O)N2Cc3ccc(C(=O)NCc4cccnc4)n3Cc3ccccc32)cc1 [Example 103]	> 30 µM
O=C(NCc1cccnc1)c1ccc2n1Cc1ccccc1N(C(=O)c1ccc(F)c(F)c1)C2 [Example 100]	31.5 µM
COc1ccccc1CNc1ccc(C(=O)N2Cc3ccc(C(=O)NCc4cccnc4)n3Cc3ccccc32)cn1 [Example 120]	49.6 µM
O=C(NCc1cccnc1)c1ccc2n1Cc1ccccc1N(C(=O)c1ccccn1)C2 [Example 116]	> 30 µM
NS(=O)(=O)c1cc(C(=O)N2Cc3ccc(C(=O)NCc4cccnc4)n3Cc3ccccc32)ccc1N1CCOCC1 [Example 114, 10-[3-(AMINOSULFONYL)-4-MORPHOLIN-4-YLBENZOYL]-N-(PYRIDIN-3-YLMETHYL)-10,11-DIHYDRO-5H-PYRROLO[2,1-C][1,4]BENZODIAZEPINE-3-CARBOXAMIDE HEMIHYDRATE]	> 30 µM
CC(=O)c1ccc(-c2ccc(C(=O)N3Cc4ccc(C(=O)NCc5cccnc5)n4Cc4ccccc43)cc2C)cc1 [Example 26]	> 30 µM

Results, then the molecule that gave them:

IC50	SMILES
31 µM	O=C(O)Cc1ccccc1-c1ccc(C(=O)N2Cc3ccc(C(=O)NCc4cccnc4)n3Cc3ccccc32)cc1 [Example 35, (4′-{[3-{[(PYRIDIN-3-YLMETHYL)AMINO]CARBONYL}-5H-PYRROLO[2,1-C][1,4]BENZODIAZEPIN-10(11H)-YL]CARBONYL}-1,1′-BIPHENYL-2-YL)ACETIC ACID]
29.1 µM	CCN(CC)C(=O)Cc1ccccc1-c1ccc(C(=O)N2Cc3ccc(C(=O)NCc4cccnc4)n3Cc3ccccc32)cc1 [Example 67]
27.7 µM	O=C(NCc1cccnc1)c1ccc2n1Cc1ccccc1N(C(=O)c1cc(Cl)sc1Cl)C2 [Example 118]
22.7 µM	Cc1ccccc1-c1cccc(C(=O)N2Cc3ccc(C(=O)NCc4cccnc4)n3Cc3ccccc32)c1 [Example 27]
18.8 µM	Cc1ccc(C(=O)N2Cc3ccc(C(=O)NCc4cccnc4)n3Cc3ccccc32)cc1 [Example 77]
18.7 µM	O=C(NCc1cccnc1)c1ccc2n1Cc1ccccc1N(C(=O)c1ccc(NCCc3ccccc3)nc1)C2 [Example 126]
17.8 µM	O=C(NCc1cccnc1)c1ccc2n1Cc1ccccc1N(C(=O)c1ccc(C(F)(F)F)cc1)C2 [Example 79]
17 µM	COc1ccccc1-c1ccc(C(=O)N2Cc3ccc(C(=O)NCC(c4cccnc4)N4CCCC4)n3Cc3ccccc32)cc1 (centres unmarked) [Example 9, 10-[(2′-METHOXY-1,1′-BIPHENYL-4-YL)CARBONYL]-N-(2-PYRIDIN-3-YL-2-PYRROLIDIN-1-YLETHYL)-10,11-DIHYDRO-5H-PYRROLO[2,1-C][1,4]BENZODIAZEPINE-3-CARBOXAMIDE]
16.6 µM	Cc1cccc(C(=O)N2Cc3ccc(C(=O)NCc4cccnc4)n3Cc3ccccc32)c1 [Example 83]
15.8 µM	O=C(NCc1cccnc1)c1ccc2n1Cc1ccccc1N(C(=O)c1ccc(NCc3cccnc3)nc1)C2 [Example 131]
15 µM	Cc1ccc(-c2ccc(C(=O)N3Cc4ccc(C(=O)NCc5cccnc5)n4Cc4ccccc43)cc2C)cc1 [Example 22]
14.5 µM	CCCCNc1ccc(C(=O)N2Cc3ccc(C(=O)NCc4cccnc4)n3Cc3ccccc32)cn1 [Example 133]
12 µM	O=C(NCc1cccnc1)c1ccc2n1Cc1ccccc1N(C(=O)c1ccc(Oc3ccccc3)cc1)C2 [Example 101]
11.3 µM	O=C(NCc1cccnc1)c1ccc2n1Cc1ccccc1N(C(=O)c1ccc3ccccc3c1)C2 [Example 146]
9.9 µM	O=C(NCc1cccnc1)c1ccc2n1Cc1ccccc1N(C(=O)c1cccc(C(F)(F)F)c1)C2 [Example 92]
2 µM	O=C(NCc1cccnc1)c1ccc2n1Cc1ccccc1N(Cc1ccc(-c3ccccc3)cc1)C2 [Example 73]

System: not given
Experiment: not given
Settings: not given

melting point	SMILES
189 to 191 °C	O=C(O)c1ccccc1-c1ccc(C(=O)N2Cc3ccc(C(=O)NCc4cccnc4)n3Cc3ccccc32)cc1 [Example 65, 4′-{[3-{[(PYRIDIN-3-YLMETHYL)AMINO]CARBONYL}-5H-PYRROLO[2,1-C][1,4]BENZODIAZEPIN-10(11H)-YL]CARBONYL}-1,1′-BIPHENYL-2-CARBOXYLIC ACID]
161 to 165 °C (dec.)	O=C(NCc1cccnc1)c1ccc2n1Cc1ccccc1N(Cc1ccc(-c3ccccc3)cc1)C2 [Example 73]
171 °C	CC(C)(C)OC(=O)NCc1ccc(C(=O)N2Cc3ccc(C(=O)NCc4cccnc4)n3Cc3ccccc32)cc1 [Example 103]
116 to 119 °C	O=C(NCc1cccnc1)c1ccc2n1Cc1ccccc1N(C(=O)c1ccc3c(c1)Cc1ccccc1-3)C2 [Example 147]
159 to 161 °C	NS(=O)(=O)c1cc(C(=O)N2Cc3ccc(C(=O)NCc4cccnc4)n3Cc3ccccc32)ccc1N1CCOCC1 (hydrate or solvate) [Example 114, 10-[3-(AMINOSULFONYL)-4-MORPHOLIN-4-YLBENZOYL]-N-(PYRIDIN-3-YLMETHYL)-10,11-DIHYDRO-5H-PYRROLO[2,1-C][1,4]BENZODIAZEPINE-3-CARBOXAMIDE HEMIHYDRATE]
179 °C	COc1cc(C(=O)N2Cc3ccc(C(=O)NCc4c(CO)cnc(C)c4O)n3Cc3ccccc32)ccc1-c1ccccc1C (as salt: hydrochloride) (hydrate or solvate)
199 to 200 °C	Cc1ncc(CNC(=O)c2ccc3n2Cc2ccccc2N(C(=O)CSc2ccc(Br)cc2)C3)c(CO)c1O
206 to 207 °C	CN(C)C(=O)c1ccccc1-c1ccc(C(=O)N2Cc3ccc(C(=O)NCc4cccnc4)n3Cc3ccccc32)cc1
169 to 171 °C	O=C(NCc1cccnc1)c1ccc2n1Cc1ccccc1N(C(=O)c1ccc3c(c1)OCO3)C2 [Example 96]
136 to 137 °C	O=C(NCc1cccnc1)c1ccc2n1Cc1ccccc1N(C(=O)CSc1ccc(Br)cc1)C2 (as salt: hydrochloride) (hydrate or solvate) [Example 141]
172 to 175 °C	CSc1ccccc1-c1ccc(C(=O)N2Cc3ccc(C(=O)NCc4cccnc4)n3Cc3ccccc32)cc1 (hydrate or solvate) [Example 14, 10-{[2′-(METHYLTHIO)-1,1′-BIPHENYL-4-YL]CARBONYL}-N-(PYRIDIN-3-YLMETHYL)-10,11-DIHYDRO-5H-PYRROLO[2,1-C][1,4]BENZODIAZEPINE-3-CARBOXAMIDE 0.67 HYDRATE]
197 °C	O=C(NCc1cccnc1)c1ccc2n1Cc1ccccc1N(C(=O)c1ccccc1)C2 [Example 76]
